Measurements as given in patent publication US20250281424A1 (New York Blood Center, Inc, priority 2020, published 2025).

Target: T1, human PF4 (Homo sapiens, UniProt P02776)
T1 construct: PF4 is a 70 amino acid, lysine-rich 7.8 kDa platelet-specific protein; made in house; host or cells: Escherichia coli BL21DE3 pLysS (pT7-7) and/or Drosophila S2 cells
T1 sequence (P02776 32-101): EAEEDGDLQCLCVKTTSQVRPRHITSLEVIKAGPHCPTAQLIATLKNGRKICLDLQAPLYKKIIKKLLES
Assay: Inhibition of PF4 tetramer formation (BS3 cross-linking, SDS-PAGE)
Assay type: biochemical
Settings: for inhibition at 5 µM: 5 μM inhibitor; for inhibition at 5 µM / inhibition at 10 µM: read-out: % inhibition of PF4 tetramer formation at single concentration of inhibitor; for inhibition at 10 µM: 10 μM inhibitor (column A); for IC50: read-out: IC50 of PF4 tetramer formation inhibition
How it was run: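 Monomer, dimer, trimer and tetramer fractions were quantified by densitometry after reducing 12% SDS-PAGE of BS3-cross-linked (0.2 mM, 30 min, room temperature) PF4. Before cross-linking, 10 μg/ml E. coli-expressed human WT PF4 in PBS was exposed to compound for 15 min at 37° C or 60 min at room temperature; controls lacked compound.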

inhibition at 5 µM	inhibition at 10 µM	IC50	Compound
90%	97%	1.1 µM	CC(=O)NCC(=O)C1C(=O)c2ccc(S(=O)(=O)c3ccc4c(c3)C(=O)C(C(=O)CNC(C)=O)C4=O)cc2C1=O (centres unmarked) [Example 175, N-[2-(5-{[2-(2-acetamidoacetyl)-1,3-dioxo-2,3-dihydro-1H-inden-5-yl]sulfonyl}-1,3-dioxo-2,3-dihydro-1H-inden-2-yl)-2-oxoethyl]acetamide]
21%	77%	–	COCCC(=O)C1C(=O)c2ccc(C(=O)c3ccc4c(c3)C(=O)C(C(=O)CCOC)C4=O)cc2C1=O (centres unmarked) [Example 176, 2-(3-methoxypropanoyl)-5-[2-(3-methoxypropanoyl)-1,3-dioxo-2,3-dihydro-1H-indene-5-carbonyl]-2,3-dihydro-1H-indene-1,3-dione]
22%	75%	–	COCCOCCC(=O)C1C(=O)c2ccc(S(=O)(=O)c3ccc4c(c3)C(=O)C(C(=O)CCOCCOC)C4=O)cc2C1=O (centres unmarked) [Example 178, 2-[3-(2-methoxyethoxy)propanoyl]-5-({2-[3-(2-methoxyethoxy)propanoyl]-1,3-dioxo-2,3-dihydro-1H-inden-5-yl}sulfonyl)-2,3-dihydro-1H-indene-1,3-dione]
86%	96%	1.6 µM	CC(=O)NCC(=O)C1C(=O)c2ccc(C(=O)c3ccc4c(c3)C(=O)C(C(=O)CNC(C)=O)C4=O)cc2C1=O (centres unmarked) [Example 181, N-(2-{5-[2-(2-acetamidoacetyl)-1,3-dioxo-2,3-dihydro-1H-indene-5-carbonyl]-1,3-dioxo-2,3-dihydro-1H-inden-2-yl}-2-oxoethyl)acetamide]
87%	100%	4.3 µM	O=C(c1ccc2c(c1)C(=O)C(C(=O)CN1CCCC1=O)C2=O)c1ccc2c(c1)C(=O)C(C(=O)CN1CCCC1=O)C2=O (centres unmarked) [Example 183, 5-{1,3-dioxo-2-[2-(2-oxopyrrolidin-1-yl)acetyl]-2,3-dihydro-1H-indene-5-carbonyl}-2-[2-(2-oxopyrrolidin-1-yl)acetyl]-2,3-dihydro-1H-indene-1,3-dione]
87%	95%	2 µM	O=C(CN1CCCC1=O)C1C(=O)c2ccc(S(=O)(=O)c3ccc4c(c3)C(=O)C(C(=O)CN3CCCC3=O)C4=O)cc2C1=O (centres unmarked) [Example 184, 5-({1,3-dioxo-2-[2-(2-oxopyrrolidin-1-yl)acetyl]-2,3-dihydro-1H-inden-5-yl}sulfonyl)-2-[2-(2-oxopyrrolidin-1-yl)acetyl]-2,3-dihydro-1H-indene-1,3-dione]
89%	94%	4.4 µM	CC(C)(C)CC(=O)NCC(=O)C1C(=O)c2ccc(C(=O)c3ccc4c(c3)C(=O)C(C(=O)CNC(=O)CC(C)(C)C)C4=O)cc2C1=O (centres unmarked) [Example 185, N-[2-(5-{2-[2-(3,3-dimethylbutanamido)acetyl]-1,3-dioxo-2,3-dihydro-1H-indene-5-carbonyl}-1,3-dioxo-2,3-dihydro-1H-inden-2-yl)-2-oxoethyl]-3,3-dimethylbutanamide]
95%	95%	2.6 µM	CC(C)(C)CC(=O)NCC(=O)C1C(=O)c2ccc(S(=O)(=O)c3ccc4c(c3)C(=O)C(C(=O)CNC(=O)CC(C)(C)C)C4=O)cc2C1=O (centres unmarked) [Example 186, N-{2-[5-({2-[2-(3,3-dimethylbutanamido)acetyl]-1,3-dioxo-2,3-dihydro-1H-inden-5-yl}sulfonyl)-1,3-dioxo-2,3-dihydro-1H-inden-2-yl]-2-oxoethyl}-3,3-dimethylbutanamide]
88%	90%	2.6 µM	CC(C)C(=O)NCC(=O)C1C(=O)c2ccc(C(=O)c3ccc4c(c3)C(=O)C(C(=O)CNC(=O)C(C)C)C4=O)cc2C1=O (centres unmarked) [Example 187, 2-methyl-N-[2-(5-{2-[2-(2-methylpropanamido)acetyl]-1,3-dioxo-2,3-dihydro-1H-indene-5-carbonyl}-1,3-dioxo-2,3-dihydro-1H-inden-2-yl)-2-oxoethyl]propanamide]
79%	86%	–	O=C(c1ccc2c(c1)C(=O)C(C(=O)Cc1ccccc1)C2=O)c1ccc2c(c1)C(=O)C(C(=O)Cc1ccccc1)C2=O (centres unmarked) [Example 190, 5-[1,3-dioxo-2-(2-phenylacetyl)-2,3-dihydro-1H-indene-5-carbonyl]-2-(2-phenylacetyl)-2,3-dihydro-1H-indene-1,3-dione]
74%	79%	~3 µM	CC(C)C(=O)NCC(=O)C1C(=O)c2ccc(S(=O)(=O)c3ccc4c(c3)C(=O)C(C(=O)CNC(=O)C(C)C)C4=O)cc2C1=O (centres unmarked) [Example 191, 2-methyl-N-{2-[5-({2-[2-(2-methylpropanamido)acetyl]-1,3-dioxo-2,3-dihydro-1H-inden-5-yl}sulfonyl)-1,3-dioxo-2,3-dihydro-1H-inden-2-yl]-2-oxoethyl}propanamide]
88%	96%	5.3 µM	C/C(O)=C1\C(=O)c2ccc(C#Cc3ccc4c(c3)C(=O)/C(=C(/C)O)C4=O)cc2C1=O [Example 196]

Compound	inhibition at 5 µM	inhibition at 10 µM	IC50
COCCC(=O)C1C(=O)c2ccc(S(=O)(=O)c3ccc4c(c3)C(=O)C(C(=O)CCOC)C4=O)cc2C1=O (centres unmarked) [Example 177, 2-(3-methoxypropanoyl)-5-{[2-(3-methoxypropanoyl)-1,3-dioxo-2,3-dihydro-1H-inden-5-yl]sulfonyl}-2,3-dihydro-1H-indene-1,3-dione]	0%	17%	–
C[C@H](NC(=O)OC(C)(C)C)C(=O)C1C(=O)c2ccc(C(=O)c3ccc4c(c3)C(=O)C(C(=O)[C@H](C)NC(=O)OC(C)(C)C)C4=O)cc2C1=O (stereo partly drawn) [Example 179, tert-butyl N-[(2S)-1-(5-{2-[(2S)-2-{[(tert-butoxy)carbonyl]amino}propanoyl]-1,3-dioxo-2,3-dihydro-1H-indene-5-carbonyl}-1,3-dioxo-2,3-dihydro-1H-inden-2-yl)-1-oxopropan-2-yl]carbamate]	81%	92%	~6 µM
C[C@H](NC(=O)OC(C)(C)C)C(=O)C1C(=O)c2ccc(S(=O)(=O)c3ccc4c(c3)C(=O)C(C(=O)[C@H](C)NC(=O)OC(C)(C)C)C4=O)cc2C1=O (stereo partly drawn) [Example 180, tert-butyl N-[(2S)-1-[5-({2-[(2S)-2-{[(tert-butoxy)carbonyl]amino}propanoyl]-1,3-dioxo-2,3-dihydro-1H-inden-5-yl}sulfonyl)-1,3-dioxo-2,3-dihydro-1H-inden-2-yl]-1-oxopropan-2-yl]carbamate]	73%	90%	~6 µM
CC(C)(C)OC(=O)N[C@@H](C(=O)C1C(=O)c2ccc(S(=O)(=O)c3ccc4c(c3)C(=O)C(C(=O)[C@H](NC(=O)OC(C)(C)C)c3ccccc3)C4=O)cc2C1=O)c1ccccc1 (some centres unmarked) [Example 182]	74%	88%	5.7 µM
CC(C)(C)OC(=O)N[C@@H](CC(=O)O)C(=O)C1C(=O)c2ccc(C(=O)c3ccc4c(c3)C(=O)C(C(=O)[C@H](CC(=O)O)NC(=O)OC(C)(C)C)C4=O)cc2C1=O (stereo partly drawn) [Example 188, (3S)-3-{[(tert-butoxy)carbonyl]amino}-4-(5-{2-[(2S)-2-{[(tert-butoxy)carbonyl]amino}-3-carboxypropanoyl]-1,3-dioxo-2,3-dihydro-1H-indene-5-carbonyl}-1,3-dioxo-2,3-dihydro-1H-inden-2-yl)-4-oxobutanoic acid]	88%	94%	2.3 µM
CC(C)CCCC(=O)C1C(=O)c2ccc(C(=O)c3ccc4c(c3)C(=O)C(C(=O)CCCC(C)C)C4=O)cc2C1=O (centres unmarked) [Example 189, 2-(5-methylhexanoyl)-5-[2-(5-methylhexanoyl)-1,3-dioxo-2,3-dihydro-1H-indene-5-carbonyl]-2,3-dihydro-1H-indene-1,3-dione]	62%	71%	–
CC(C)(C)OC(=O)N1CCC[C@H]1C(=O)C1C(=O)c2ccc(Oc3ccc4c(c3)C(=O)C(C(=O)[C@@H]3CCCN3C(=O)OC(C)(C)C)C4=O)cc2C1=O (stereo partly drawn) [Example 193, tert-butyl (2S)-2-[5-({2-[(2S)-1-[(tert-butoxy)carbonyl]pyrrolidine-2-carbonyl]-1,3-dioxo-2,3-dihydro-1H-inden-5-yl}oxy)-1,3-dioxo-2,3-dihydro-1H-indene-2-carbonyl]pyrrolidine-1-carboxylate]	37%	40%	–
CC(C)CCCC(=O)C1C(=O)c2ccc(C(c3ccc4c(c3)C(=O)C(C(=O)CCCC(C)C)C4=O)(C(F)(F)F)C(F)(F)F)cc2C1=O (centres unmarked) [Example 194, 5-{1,1,1,3,3,3-hexafluoro-2-[2-(5-methylhexanoyl)-1,3-dioxo-2,3-dihydro-1H-inden-5-yl]propan-2-yl}-2-(5-methylhexanoyl)-2,3-dihydro-1H-indene-1,3-dione]	–	–	~1.5 µM
CC(C)(C)OC(=O)N1CCC[C@H]1C(=O)C1C(=O)c2ccc(C(c3ccc4c(c3)C(=O)C(C(=O)[C@@H]3CCCN3C(=O)OC(C)(C)C)C4=O)(C(F)(F)F)C(F)(F)F)cc2C1=O (stereo partly drawn) [Example 195, tert-butyl (2S)-2-[5-(2-{2-[(2S)-1-[(tert-butoxy)carbonyl]pyrrolidine-2-carbonyl]-1,3-dioxo-2,3-dihydro-1H-inden-5-yl}-1,1,1,3,3,3-hexafluoropropan-2-yl)-1,3-dioxo-2,3-dihydro-1H-indene-2-carbonyl]pyrrolidine-1-carboxylate]	–	–	4 µM
